# Experimental data published in patent US20240251788A1, “HERBICIDE/SAFENER COMBINATION BASED ON SAFENERS FROM THE CLASS OF SUBSTITUTED [(1,5-DIPHENYL-1H-1,2,4-TRIAZOL-3-YL)OXY]ACETIC ACIDS AND THEIR SALTS” (Bayer Aktiengesellschaft, priority 2021, published 2024).
# How the values were obtained:
# [1] = test system: summer wheat crop plant (TRZAS; cv. Triso); test: Reduction in herbicide damage to summer wheat by safener, greenhouse post-emergence application, visual scoring; type: in vivo; set-up: key to Reduction in the damage by safener (difference): difference in % visual damage (0-100% scale vs untreated) due to safener; conditions: for Reduction in the damage by safener (difference) / Reduction in the damage by safener (in %): summer wheat (TRZAS); for Damage to the plant by the herbicide (in %): in vivo
# Protocol: (§1) The seeds of the crop plants to be treated are laid out in soil in woodfiber pots (diameter ˜ 7 cm), covered with soil and grown in a greenhouse under good conditions for germination and growth. The trial plants were treated at the early leaf stage (BBCH10-BBCH12).
# The herbicides used (component B) were used in the following formulations: • B2.81: WP • B2.85: WP • B2.92: WP • Cinmethylin: EC • Clomazone: WP • Ethofumesate: WP • Flufenacet: SC • Pinoxaden: WP • Saflufenacil: WP • Bicyclopyrone: WP • Picloram: WP • Metazachlor: SC • Flumioxazin: WP • Glyphosate potassium salt: SL • Topramezone: WP
# (§2) The dose of the respective herbicides was chosen here such that it causes an average degree of visually apparent damage (min. 20%, max. 75%) compared to untreated crop plants at the evaluation time on a control group of crop plants without safener treatment that were included in the same trial.
# (§3) In the respective herbicide/safener combinations, the safeners (component A) in the form of wettable powders (WP) were added in the dose specified; in these cases, herbicide and safener are thus applied as a mixture.
# (§4) Application was effected in each case on to the above-ground parts of the plant, at a water application rate corresponding to 300 l/ha and with addition of wetting agent (Mero, 1.5 l/h a).
# In the applications that contained pinoxaden, bicyclopyrone or topramezone, the herbicidal effect was enhanced by additionally adding ammonium sulfate (2 kg/ha).
# (§5) After application, the plants were cultivated under good growth conditions in a greenhouse. On account of the different mechanisms of action of the herbicides used, the damaging effect of the herbicides was fully manifested at different times depending on the herbicide, and this in turn forms the basis for assessment of the safener action in the mixtures. Therefore, the damage was scored visually, depending on the herbicide/mixture, between 11 and 21 days after application.
# (§6) The damage effect was assessed visually on a scale of 0-100% by comparison with untreated control plants, and averaged over 2 repeats per treatment.
# [2] = test system: summer barley crop plant (HORVS: cv. Quench); test: Reduction in herbicide damage to summer barley by safener, greenhouse post-emergence application, visual scoring; type: in vivo; set-up: key to Reduction in the damage by safener (difference): difference in % visual damage, 0-100% scale vs untreated plants; conditions: for Reduction in the damage by safener (difference) / Reduction in the damage by safener (in %): summer barley (HORVS); for Damage to the plant by the herbicide (in %): in vivo
# Protocol: as §1
# The herbicides used (component B) were used in the following formulations: • B2.81: WP • B2.85: WP • B2.92: WP • Clomazone: WP • Ethofumesate: WP • Flufenacet: SC • Fluroxypyr: EC • Saflufenacil: WP • Thiencarbazone-methyl: WP • Iodosulfuron-methyl-sodium: WP • Bifenox: WP • Glyphosate potassium salt: SL • Topramezone: WP
# as §2, §3, §4
# In the applications that contained pinoxaden or topramezone, the herbicidal effect was enhanced by additionally adding ammonium sulfate (2 kg/ha).
# as §5, §6
# [3] = herbicide B1.2 (bicyclopyrone) 400 g a.i./ha + safener 100 g a.i./ha
# [4] = herbicide B1.8 (pinoxaden) 200 g a.i./ha + safener 100 g a.i./ha
# [5] = herbicide B2.28 (flufenacet) 2000 g a.i./ha + safener 100 g a.i./ha
# [6] = herbicide B2.28 (flufenacet) 4000 g a.i./ha + safener 100 g a.i./ha
# [7] = herbicide B2.38 (metazachlor) 4000 g a.i./ha + safener 100 g a.i./ha
# [8] = herbicide B2.81 15 g a.i./ha + safener 100 g a.i./ha
# [9] = herbicide B4.28 (topramezone) 300 g a.i./ha + safener 100 g a.i./ha
# [10] = herbicide B5.13 (cinmethylin) 500 g a.i./ha + safener 100 g a.i./ha
# [11] = herbicide B5.13 (cinmethylin) 1000 g a.i./ha + safener 100 g a.i./ha
# [12] = herbicide B5.14 (clomazone) 200 g a.i./ha + safener 100 g a.i./ha
# [13] = herbicide B5.21 (ethofumesate) 2000 g a.i./ha + safener 100 g a.i./ha
# [14] = herbicide B5.26 (flumioxazin) 20 g a.i./ha + safener 100 g a.i./ha
# [15] = herbicide B6.5 (picloram) 400 g a.i./ha + safener 100 g a.i./ha
# [16] = herbicide B7.5 (glyphosate) 400 g a.i./ha + safener 100 g a.i./ha
# [17] = herbicide B2.34 (iodosulfuron) 10 g a.i./ha + safener 100 g a.i./ha
# [18] = herbicide B2.68 (thiencarbazone-methyl) 30 g a.i./ha + safener 100 g a.i./ha
# [19] = herbicide B2.85 5 g a.i./ha + safener 100 g a.i./ha
# [20] = herbicide B2.92 5 g a.i./ha + safener 100 g a.i./ha
# [21] = herbicide B6.4 (fluroxypyr) 500 g a.i./ha + safener 100 g a.i./ha
# [22] = herbicide B8.6 (bifenox) 600 g a.i./ha + safener 100 g a.i./ha
# [23] = herbicide B9.10 (saflufenacil) 20 g a.i./ha + safener 100 g a.i./ha
structure (smiles),measurement,setting,value
"COC(=O)COc1nc(-c2ccc(Cl)cc2F)n(-c2ccc(F)cc2F)n1 [Compound A3, methyl {[5-(4-chloro-2-fluorophenyl)-1-(2,4-difluorophenyl)-1H-1,2,4-triazol-3-yl]oxy}acetate]",Reduction in the damage by safener (difference),[1]; [3],25
same,Reduction in the damage by safener (in %),[1]; [3],42%
same,Reduction in the damage by safener (difference),[1]; [4],15
same,Reduction in the damage by safener (in %),[1]; [4],43%
same,Reduction in the damage by safener (difference),[1]; [5],30
same,Reduction in the damage by safener (in %),[1]; [5],100%
same,Reduction in the damage by safener (difference),[1]; [6],40
same,Reduction in the damage by safener (in %),[1]; [6],100%
same,Reduction in the damage by safener (difference),[1]; [7],30
same,Reduction in the damage by safener (in %),[1]; [7],75%
same,Reduction in the damage by safener (difference),[1]; [8],15
same,Reduction in the damage by safener (in %),[1]; [8],21%
same,Reduction in the damage by safener (difference),[1]; [9],20
same,Reduction in the damage by safener (in %),[1]; [9],50%
same,Reduction in the damage by safener (difference),[1]; [10],25
same,Reduction in the damage by safener (in %),[1]; [10],100%
same,Reduction in the damage by safener (difference),[1]; [11],25
same,Reduction in the damage by safener (in %),[1]; [11],100%
same,Reduction in the damage by safener (difference),[1]; [12],15
same,Reduction in the damage by safener (in %),[1]; [12],38%
same,Reduction in the damage by safener (difference),[1]; [13],70
same,Reduction in the damage by safener (in %),[1]; [13],100%
same,Reduction in the damage by safener (difference),[1]; [14],25
same,Reduction in the damage by safener (in %),[1]; [14],42%
same,Reduction in the damage by safener (difference),[1]; [15],20
same,Reduction in the damage by safener (in %),[1]; [15],80%
same,Reduction in the damage by safener (difference),[1]; [16],35
same,Reduction in the damage by safener (in %),[1]; [16],78%
same,Reduction in the damage by safener (difference),[2]; [5],15
same,Reduction in the damage by safener (in %),[2]; [5],50%
same,Reduction in the damage by safener (difference),[2]; [6],35
same,Reduction in the damage by safener (in %),[2]; [6],70%
same,Reduction in the damage by safener (difference),[2]; [17],25
same,Reduction in the damage by safener (in %),[2]; [17],56%
same,Reduction in the damage by safener (difference),[2]; [18],30
same,Reduction in the damage by safener (in %),[2]; [18],100%
same,Reduction in the damage by safener (difference),[2]; [8],70
same,Reduction in the damage by safener (in %),[2]; [8],100%
same,Reduction in the damage by safener (difference),[2]; [19],15
same,Reduction in the damage by safener (in %),[2]; [19],25%
same,Reduction in the damage by safener (difference),[2]; [20],30
same,Reduction in the damage by safener (in %),[2]; [20],46%
same,Reduction in the damage by safener (difference),[2]; [9],40
same,Reduction in the damage by safener (in %),[2]; [9],80%
same,Reduction in the damage by safener (difference),[2]; [13],60
same,Reduction in the damage by safener (in %),[2]; [13],100%
same,Reduction in the damage by safener (difference),[2]; [21],20
same,Reduction in the damage by safener (in %),[2]; [21],100%
same,Reduction in the damage by safener (difference),[2]; [16],50
same,Reduction in the damage by safener (in %),[2]; [16],83%
same,Reduction in the damage by safener (difference),[2]; [22],35
same,Reduction in the damage by safener (in %),[2]; [22],88%
"COC(=O)COc1nc(-c2ccc(F)cc2F)n(-c2ccc(Cl)cc2F)n1 [Compound A5, methyl {[1-(4-chloro-2-fluorophenyl)-5-(2,4-difluorophenyl)-1H-1,2,4-triazol-3-yl]oxy}acetate]",Reduction in the damage by safener (difference),[1]; [4],20
same,Reduction in the damage by safener (in %),[1]; [4],57%
same,Reduction in the damage by safener (difference),[1]; [8],20
same,Reduction in the damage by safener (in %),[1]; [8],29%
same,Reduction in the damage by safener (difference),[1]; [19],50
same,Reduction in the damage by safener (in %),[1]; [19],83%
same,Reduction in the damage by safener (difference),[1]; [20],55
same,Reduction in the damage by safener (in %),[1]; [20],92%
same,Reduction in the damage by safener (difference),[1]; [12],15
same,Reduction in the damage by safener (in %),[1]; [12],38%
same,Reduction in the damage by safener (difference),[1]; [13],70
same,Reduction in the damage by safener (in %),[1]; [13],100%
same,Reduction in the damage by safener (difference),[2]; [18],30
same,Reduction in the damage by safener (in %),[2]; [18],100%
same,Reduction in the damage by safener (difference),[2]; [8],20
same,Reduction in the damage by safener (in %),[2]; [8],29%
same,Reduction in the damage by safener (difference),[2]; [19],40
same,Reduction in the damage by safener (in %),[2]; [19],67%
same,Reduction in the damage by safener (difference),[2]; [20],50
same,Reduction in the damage by safener (in %),[2]; [20],77%
same,Reduction in the damage by safener (difference),[2]; [13],60
same,Reduction in the damage by safener (in %),[2]; [13],100%
same,Reduction in the damage by safener (difference),[2]; [21],15
same,Reduction in the damage by safener (in %),[2]; [21],75%
same,Reduction in the damage by safener (difference),[2]; [23],15
same,Reduction in the damage by safener (in %),[2]; [23],38%
"C=C[C@]1(C(=O)N[C@H]2C=C[C@@H](C(=O)OC)C2)CC(c2cc(F)cc(F)c2)=NO1 [Compound B2.85, methyl (1S,4R)-4-[[[(5S)-3-(3,5-difluorophenyl)-5-vinyl-4H-1,2-oxazol-5-yl]carbonyl]amino]cyclopent-2-ene-1-carboxylate]",Damage to the plant by the herbicide (in %),[1],60%
same,Damage to the plant by the herbicide (in %),[2],60%
"C[C@]1(C(=O)N[C@H]2C=C[C@@H](C(=O)O)C2)CC(c2cc(F)cc(F)c2)=NO1 [Compound B2.92, (1S,4R)-4-[[(5R)-3-(3,5-difluorophenyl)-5-methyl-4H-isoxazole-5-carbonyl]amino]cyclopent-2-ene-1-carboxylic acid]",Damage to the plant by the herbicide (in %),[1],60%
same,Damage to the plant by the herbicide (in %),[2],65%
